#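 In this assay, cells in 96-well plates receive the compound at five concentrations for 48 hours. Endpoints are linearly interpolated between the surrounding concentrations. Here, GI50 denotes the concentration required for 50% inhibition of growth. Definition used: TGI = concentration required for complete inhibition of growth.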
# Legend:
# Experiment in all cases: NCI-60 cell line screen, 48 h
# [1] = test system: MCF7 breast
# [2] = test system: DU-145 prostate
# [3] = test system: LOX IMVI melanoma
# [4] = test system: OVCAR-4 ovarian
# [5] = test system: MALME-3M melanoma
# [6] = test system: M14 melanoma
# [7] = test system: PC-3 prostate
# [8] = test system: NCI/ADR-RES ovarian
# [9] = test system: SK-OV-3 ovarian
# [10] = test system: A498 renal
# [11] = test system: NCI-H460 lung
# [12] = test system: MOLT-4 leukemia
# [13] = test system: UACC-257 melanoma
# [14] = test system: OVCAR-5 ovarian
# [15] = test system: HS 578T breast
# [16] = test system: UO-31 renal
# [17] = test system: CCRF-CEM leukemia
# [18] = test system: COLO 205 colon
# [19] = test system: HCT-116 colon
# [20] = test system: IGROV1 ovarian
# [21] = test system: RPMI-8226 leukemia
# [22] = test system: HOP-92 NSCLC
# [23] = test system: NCI-H226 lung
# [24] = test system: U251 CNS
# [25] = test system: SF-295 CNS
# [26] = test system: SW-620 colon
# [27] = test system: NCI-H522 lung
# [28] = test system: SR leukemia
# [29] = test system: MDA-MB-435
# [30] = test system: OVCAR-8 ovarian
# [31] = test system: TK-10 renal
# [32] = test system: 786-0 renal
# [33] = test system: HL-60(TB) leukemia
# [34] = test system: HCT-15 colon
# [35] = test system: OVCAR-3 ovarian
# [36] = test system: SK-MEL-2 melanoma
# [37] = test system: K-562 leukemia
# [38] = test system: HOP-62 NSCLC
# [39] = test system: T-47D breast
# [40] = test system: KM12 colon
# [41] = test system: SK-MEL-28 melanoma
# [42] = test system: ACHN renal
# [43] = test system: SN12C renal
# [44] = test system: UACC-62 melanoma
# [45] = test system: SK-MEL-5 melanoma
# [46] = test system: SF-268 CNS
# [47] = test system: BT-549 breast
# [48] = test system: MDA-MB-231 breast
# [49] = test system: SNB-19 CNS
# [50] = test system: HT29 colon
# [51] = test system: HCC-2998 colon
# [52] = test system: SF-539 CNS
# [53] = test system: CAKI-1 renal
# [54] = test system: NCI-H23 lung
# [55] = test system: A549 NSCLC
# [56] = test system: SNB-75 CNS
# [57] = test system: RXF 393 renal
# [58] = test system: EKVX NSCLC
structure (smiles),measurement,setting,value
Clc1cc(Br)ccc1-c1ccc(CNCC2CCNCC2)o1,GI50,[1],1.74 µM
same,TGI,[1],3.35 µM
same,GI50,[2],1.75 µM
same,TGI,[2],3.21 µM
same,GI50,[3],1.86 µM
same,TGI,[3],3.7 µM
same,GI50,[4],1.86 µM
same,TGI,[4],4.49 µM
same,GI50,[5],2.33 µM
same,TGI,[5],4.11 µM
same,GI50,[6],1.85 µM
same,TGI,[6],3.7 µM
same,GI50,[7],1.64 µM
same,TGI,[7],3.3 µM
same,GI50,[8],3.13 µM
same,TGI,[8],9.69 µM
same,GI50,[9],1.99 µM
same,TGI,[9],3.86 µM
same,GI50,[10],1.87 µM
same,TGI,[10],4.24 µM
same,GI50,[11],1.87 µM
same,TGI,[11],3.72 µM
same,GI50,[12],1.7 µM
same,TGI,[12],3.57 µM
same,GI50,[13],1.85 µM
same,TGI,[13],3.51 µM
same,GI50,[14],1.89 µM
same,TGI,[14],3.93 µM
same,GI50,[15],1.91 µM
same,TGI,[15],4.37 µM
same,GI50,[16],1.66 µM
same,TGI,[16],3.24 µM
same,GI50,[17],1.58 µM
same,TGI,[17],3.54 µM
same,GI50,[18],1.89 µM
same,TGI,[18],3.51 µM
same,GI50,[19],1.69 µM
same,TGI,[19],3.97 µM
same,GI50,[20],1.9 µM
same,TGI,[20],3.86 µM
same,GI50,[21],1.86 µM
same,TGI,[21],4.46 µM
same,GI50,[22],1.4 µM
same,TGI,[22],4.9 µM
same,GI50,[23],2.3 µM
same,TGI,[23],6.25 µM
same,GI50,[24],2.17 µM
same,TGI,[24],4.03 µM
same,GI50,[25],1.94 µM
same,TGI,[25],3.99 µM
same,GI50,[26],1.85 µM
same,TGI,[26],3.72 µM
same,GI50,[27],1.82 µM
same,TGI,[27],3.72 µM
same,GI50,[28],0.444 µM
same,TGI,[28],2.65 µM
same,GI50,[29],1.84 µM
same,TGI,[29],3.46 µM
same,GI50,[30],2.19 µM
same,TGI,[30],5.15 µM
same,GI50,[31],1.75 µM
same,TGI,[31],3.37 µM
same,GI50,[32],1.55 µM
same,TGI,[32],3.06 µM
same,GI50,[33],1.89 µM
same,TGI,[33],3.99 µM
same,GI50,[34],1.86 µM
same,TGI,[34],4.29 µM
same,GI50,[35],1.75 µM
same,TGI,[35],3.27 µM
same,GI50,[36],1.75 µM
same,TGI,[36],3.53 µM
same,GI50,[37],1.45 µM
same,TGI,[37],3.46 µM
same,GI50,[38],1.84 µM
same,TGI,[38],3.43 µM
same,GI50,[39],1.98 µM
same,TGI,[39],3.93 µM
same,GI50,[40],1.71 µM
same,TGI,[40],3.22 µM
same,GI50,[41],1.89 µM
same,TGI,[41],3.42 µM
same,GI50,[42],1.93 µM
same,TGI,[42],3.66 µM
same,GI50,[43],2.23 µM
same,TGI,[43],7.69 µM
same,GI50,[44],1.69 µM
same,TGI,[44],3.21 µM
same,GI50,[45],1.76 µM
same,TGI,[45],3.2 µM
same,GI50,[46],1.57 µM
same,TGI,[46],3.04 µM
same,GI50,[47],1.73 µM
same,TGI,[47],3.5 µM
same,GI50,[48],1.59 µM
same,TGI,[48],3.42 µM
same,GI50,[49],2.3 µM
same,TGI,[49],7.2 µM
same,GI50,[50],1.44 µM
same,TGI,[50],3.11 µM
same,GI50,[51],1.86 µM
same,TGI,[51],3.45 µM
same,GI50,[52],1.65 µM
same,TGI,[52],3.17 µM
same,GI50,[53],1.85 µM
same,TGI,[53],3.58 µM
same,GI50,[54],3.43 µM
same,TGI,[54],13.6 µM
same,GI50,[55],1.9 µM
same,TGI,[55],3.77 µM
same,GI50,[56],1.26 µM
same,TGI,[56],2.88 µM
Cc1cccc2c(=O)c3c(sc12)c(NCCCNCCO)nc1ccccc13,GI50,[1],1.33 µM
same,TGI,[1],2.87 µM
same,GI50,[2],1.57 µM
same,TGI,[2],2.96 µM
same,GI50,[3],1.38 µM
same,TGI,[3],2.76 µM
same,GI50,[4],1.8 µM
same,TGI,[4],3.44 µM
same,GI50,[5],1.81 µM
same,TGI,[5],3.5 µM
same,GI50,[6],1.81 µM
same,TGI,[6],3.56 µM
same,GI50,[7],1.29 µM
same,TGI,[7],2.75 µM
same,GI50,[8],1.73 µM
same,TGI,[8],3.26 µM
same,GI50,[10],1.3 µM
same,TGI,[10],2.83 µM
same,GI50,[11],1.15 µM
same,TGI,[11],2.55 µM
same,GI50,[12],1.13 µM
same,TGI,[12],2.62 µM
same,GI50,[13],1.86 µM
same,TGI,[13],3.54 µM
same,GI50,[14],1.6 µM
same,TGI,[14],3.02 µM
same,GI50,[57],1.51 µM
same,TGI,[57],2.89 µM
same,GI50,[15],1.63 µM
same,TGI,[15],3.62 µM
same,GI50,[16],1.19 µM
same,TGI,[16],2.55 µM
same,GI50,[17],1.57 µM
same,TGI,[17],3.31 µM
same,GI50,[18],1.61 µM
same,TGI,[18],3.24 µM
same,GI50,[19],1.51 µM
same,TGI,[19],3.03 µM
same,GI50,[20],1.34 µM
same,TGI,[20],2.96 µM
same,GI50,[21],1.81 µM
same,TGI,[21],3.81 µM
same,GI50,[22],1.21 µM
same,TGI,[22],3.24 µM
same,GI50,[23],1.6 µM
same,TGI,[23],3.33 µM
same,GI50,[58],1.57 µM
same,TGI,[58],3 µM
same,GI50,[24],1.5 µM
same,TGI,[24],2.96 µM
same,GI50,[25],1.72 µM
same,TGI,[25],3.18 µM
same,GI50,[26],1.43 µM
same,TGI,[26],2.99 µM
same,GI50,[27],1.65 µM
same,TGI,[27],3.54 µM
same,GI50,[29],1.74 µM
same,TGI,[29],3.18 µM
same,GI50,[30],1.71 µM
same,TGI,[30],3.37 µM
same,GI50,[32],1.75 µM
same,TGI,[32],3.4 µM
same,GI50,[33],1.82 µM
same,TGI,[33],3.49 µM
same,GI50,[34],1.51 µM
same,TGI,[34],2.96 µM
same,GI50,[35],1.74 µM
same,TGI,[35],3.26 µM
same,GI50,[36],1.75 µM
same,TGI,[36],3.34 µM
same,GI50,[38],1.22 µM
same,TGI,[38],2.75 µM
same,GI50,[39],1.57 µM
same,TGI,[39],3.5 µM
same,GI50,[40],1.72 µM
same,TGI,[40],3.25 µM
same,GI50,[41],1.73 µM
same,TGI,[41],3.18 µM
same,GI50,[42],1.49 µM
same,TGI,[42],2.81 µM
same,GI50,[43],1.56 µM
same,TGI,[43],3.12 µM
same,GI50,[44],1.67 µM
same,TGI,[44],3.17 µM
same,GI50,[45],1.78 µM
same,TGI,[45],3.29 µM
same,GI50,[46],1.4 µM
same,TGI,[46],2.97 µM
same,GI50,[47],1.85 µM
same,TGI,[47],4.27 µM
same,GI50,[48],1.6 µM
same,TGI,[48],3.13 µM
same,GI50,[50],1.57 µM
same,TGI,[50],3.2 µM
same,GI50,[51],1.58 µM
same,TGI,[51],3.06 µM
same,GI50,[52],1.71 µM
same,TGI,[52],3.09 µM
same,GI50,[53],1.31 µM
same,TGI,[53],2.67 µM
same,GI50,[54],1.66 µM
same,TGI,[54],3.13 µM
same,GI50,[55],1.06 µM
same,TGI,[55],2.64 µM
same,GI50,[56],1.13 µM
same,TGI,[56],2.35 µM

# From PubChem BioAssay (NCI)
